Source: patent US20080221200A1, “Combination of Organic Compounds” (priority 2005, published 2008)

How the values were obtained:
[1] = system: mice (NOD); assay: Effect on insulitis in NOD mice dosed intraperitoneally; assay type: in vivo; conditions: intraperitoneal, from 4 weeks of age, 3 times a week for four weeks, assessed at 14 weeks
Protocol: To investigate the effect of Vildagliptin or the combination “Vildagliptin+compound A” on insulitis or type I diabetes mellitus, mice (NOD) with a genetic predisposition to develop IDDM (insulin dependent diabetes mellitus) are treated with Vildagliptin or the combination “Vildagliptin+compound A”. The animals are dosed intraperitoneally from 4 weeks of age, 3 times a week for four weeks. Insulitis is assessed at 14 weeks and scored in a table. The mice are scored according to the method of Beales et al. (European Journal of Pharmacology 357 (1998) 221-225. 3 or more (DMSO and PBS) represents severe grade insulitis and 1-3 represents little infiltration (a score of 1 would represent low grade peri-insulitis).

[2] = system: non-obese diabetic (NOD) mice; assay: Incidence of insulitis in NOD mice, supplementation in drinking water during pregnancy and lactation; assay type: in vivo; conditions: maternal drinking water through pregnancy and lactation, examined at 12 weeks of age
Excerpt: F. Effect of Vildagliptin and the combination of “Vildagliptin+compound A” on incidence of Insulitis Diabetes-prone non-obese diabetic (NOD) mice in which females develop a 90% rate of autoimmune diabetes by the age of 25 weeks is studied in order to determine the effect of Vildagliptin and the combination of “Vildagliptin+compound A” on insulitis onset and development. Insulitis initiates at 3-5 weeks of age in NOD mice, as leukocytes begin to infiltrate around ducts and venules in both female and male mice. These infiltrates progress toward the islets, which become surrounded by concentric layers of pen-insular lymphocytes (non-destructive peri-insulitis). Destructive intra-islet insulitis then occurs, leading to extensive P cell destruction. All NOD mice display peri-insulitis, whereas intra-insulitis and overt Type 1 diabetes is restricted to about 70-80% of females and about 10-15% of males in the NOD mouse colony used in this instance. […] Mice which are examined and found to have evidence of insulitis, are then further scored as peri-islet (slight), less than 50% area of islet (medium) or more than 50% islet area (heavy), as indicative of the stage and/or severity of insulitis.

SMILES: N#C[C@@H]1CCCN1C(=O)CNC12CC3CC(CC(O)(C3)C1)C2 [vildagliptin, (S)-1-[(3-hydroxy-1-adamantyl)amino]acetyl-2-cyano-pyrrolidine]
- insulitis score [1]: unexpected good results in reducing insulitis
- insulitis (histological evidence within pancreatic islets) [2]: unexpected good results in reducing insulitis
